In patent US20250115620A1, “BRIDGED TRICYCLIC CARBAMOYLPYRIDONE COMPOUNDS AND USES THEREOF” (Gilead Sciences, Inc., priority 2022, published 2025) one finds EC50 and CC50 data, which are given here for 16 molecules.

The subject of one data set is HIV-1 (IIIB). As to the kind of experiment: microbe, parasite or virus in culture. Format: cell-based. The following applies: Human immunodeficiency virus 1, IIIB, MT4, 120 h, read-out: MT4 EC50.
Another data set can be described thus: in vitro. The conditions noted are these: human, uninfected MT-4 cells.
The subject of the next data set is pLAI reporter virus. Description: microbe, parasite or virus in culture. Format: cell-based, HIV. The conditions noted are these: Human immunodeficiency virus 1, MT4, 72 h.
Where [1] appears, read: HIV-1 (IIIB) in MT-4 cells, 5 days incubation, Cell Titer Glo.

SMILES strings stand for the structures. pEC50: −log10 of the molar value. Read-outs that look alike come from different tables or passages of the source.

As to `C[C@H]1CC[C@]2(CC(OCC(F)(F)F)=NO2)[C@H]2CN1C(=O)c1c(O)c(=O)c(C(=O)NCc3ccc(F)cc3F)cn12` [Example 46, (3′S,5S,7′R)—N-(2,4-difluorobenzyl)-12′-hydroxy-3′-methyl-1′,11′-dioxo-3-(2,2,2-trifluoroethoxy)-1′,4′,5′,11′-tetrahydro-3′H,4H,7′H-spiro[isoxazole-5,6′-[2,7]methanopyrido[1,2-a][1,4]diazonine]-10′-carboxamide], the pEC50 with HIV-1 (IIIB) (setting [1]) was 8.77; in the data set with pLAI reporter virus (read-out: RLUC 50% HS EC50), 8.64; with pLAI reporter virus (read-out: RLUC CCM EC50), 10.00. In addition, the CC50 at 5 days in “in vitro” amounted to 7720 nM.
`C[C@H]1CC[C@]2(CC(N3CCC3)=NO2)[C@H]2CN1C(=O)c1c(O)c(=O)c(C(=O)NCc3c(F)cc(F)cc3F)cn12` [Example 74, (3′S,5S,7′R)-3-(azetidin-1-yl)-12′-hydroxy-3′-methyl-1′,11′-dioxo-N-(2,4,6-trifluorobenzyl)-1′,4′,5′,11′-tetrahydro-3′H,4H,7′H-spiro[isoxazole-5,6′-[2,7]methanopyrido[1,2-a][1,4]diazonine]-10′-carboxamide]: the negative-log EC50 (pEC50) is 8.68 in the data set with HIV-1 (IIIB), 8.31 in the data set on pLAI reporter virus (read-out: RLUC 50% HS EC50) and 9.40 with pLAI reporter virus (read-out: RLUC CCM EC50). Also, in “in vitro”, the CC50 at 5 days was found to be 22300 nM.
With `COC1=NO[C@@]2(CC[C@H](C)N3C[C@H]2n2cc(C(=O)NCc4c(F)cc(F)cc4F)c(=O)c(O)c2C3=O)C1` [Example 36, (3′S,5S,7′R)-12′-hydroxy-3-methoxy-3′-methyl-1′,11′-dioxo-N-(2,4,6-trifluorobenzyl)-1′,4′,5′,11′-tetrahydro-3′H,4H,7′H-spiro[isoxazole-5,6′-[2,7]methanopyrido[1,2-a][1,4]diazonine]-10′-carboxamide], the negative logarithm of the EC50 (pEC50) was 9.15 with HIV-1 (IIIB) (setting [1]), 7.56 in the data set on pLAI reporter virus (read-out: RLUC 50% HS EC50) and 9.70 in the data set on pLAI reporter virus (read-out: RLUC CCM EC50). The molecule further displayed a CC50 at 5 days in the data set “in vitro” of 19500 nM.
The matching figures for `C[C@H]1CC[C@@]2(CO2)[C@H]2CN1C(=O)c1c(O)c(=O)c(C(=O)NCc3c(F)cc(F)cc3F)cn12` [Example 166, (2S,3′S,7′R)-12′-hydroxy-3′-methyl-1′,11′-dioxo-N-(2,4,6-trifluorobenzyl)-1′,4′,5′,11′-tetrahydro-3′H,7′H-spiro[oxirane-2,6′-[2,7]methanopyrido[1,2-a][1,4]diazonine]-10′-carboxamide]: 9.05, 8.89, 9.70 and 4600 nM.
On to `C[C@H]1CC[C@]2(CC(=O)N(Cc3cccc4[nH]cnc34)O2)[C@H]2CN1C(=O)c1c(O)c(=O)c(C(=O)NCc3c(F)cc(F)cc3F)cn12` [Example 114, (3′S,5S,7′R)-2-((1H-benzo[d]imidazol-4-yl)methyl)-12′-hydroxy-3′-methyl-1′,3,11′-trioxo-N-(2,4,6-trifluorobenzyl)-1′,4′,5′,11′-tetrahydro-3′H,7′H-spiro[isoxazolidine-5,6′-[2,7]methanopyrido[1,2-a][1,4]diazonine]-10′-carboxamide], for which the results for the negative logarithm of the EC50 (pEC50) in the data set with HIV-1 (IIIB) (setting [1]), with pLAI reporter virus (read-out: RLUC 50% HS EC50) and in the data set on pLAI reporter virus (read-out: RLUC CCM EC50) were 8.21, 8.23 and 8.72, respectively. In the data set “in vitro”, the 50% cytotoxic concentration (CC50) at 5 days was at least 50000 nM.
The matching figures for `CO[C@@H]1CS[C@]2(CC[C@H](C)N3C[C@H]2n2cc(C(=O)NCc4c(F)cc(F)cc4F)c(=O)c(O)c2C3=O)O1` (single isomer, unassigned) [170 (peak 2)]: 8.77, 8.59, 9.70 and 42600 nM.
Consider `CC1=NO[C@@]2(CC[C@H](C)N3C[C@H]2n2cc(C(=O)NCc4ccc(F)c(Cl)c4F)c(=O)c(O)c2C3=O)[C@H]1C` [Example 34, (3′S,4S,5S,7′R)—N-(3-chloro-2,4-difluorobenzyl)-12′-hydroxy-3,3′,4-trimethyl-1′,11′-dioxo-1′,4′,5′,11′-tetrahydro-3′H,4H,7′H-spiro[isoxazole-5,6′-[2,7]methanopyrido[1,2-a][1,4]diazonine]-10′-carboxamide], for which the results for the pEC50 in the data set with HIV-1 (IIIB) (setting [1]), in the data set with pLAI reporter virus (read-out: RLUC 50% HS EC50) and in the data set with pLAI reporter virus (read-out: RLUC CCM EC50) were 9.22, 7.12 and 9.70, respectively. The molecule also came in with a cytotoxic concentration (CC50) at 5 days in “in vitro” of 13600 nM.
On the same counts, the results for `C[C@H]1CC[C@]2(CC(=O)N(Cc3cccc(C(F)(F)F)c3)O2)[C@H]2CN1C(=O)c1c(O)c(=O)c(C(=O)NCc3c(F)cc(F)cc3F)cn12` [Example 111, (3′S,5S,7′R)-12′-hydroxy-3′-methyl-1′,3,11′-trioxo-N-(2,4,6-trifluorobenzyl)-2-(3-(trifluoromethyl)benzyl)-1′,4′,5′,11′-tetrahydro-3′H,7′H-spiro[isoxazolidine-5,6′-[2,7]methanopyrido[1,2-a][1,4]diazonine]-10′-carboxamide] are 8.64, 8.72, 9.40 and 7230 nM.
Turning to `C[C@H]1CC[C@@]2(CC(O)CO2)[C@H]2CN1C(=O)c1c(O)c(=O)c(C(=O)NCc3c(F)cc(F)cc3F)cn12` (stereo partly drawn) [Example 123, (2R,3′S,7′R)-4,12′-dihydroxy-3′-methyl-1′,11′-dioxo-N-(2,4,6-trifluorobenzyl)-1′,4,4′,5,5′,11′-hexahydro-3H,3′H,7′H-spiro[furan-2,6′-[2,7]methanopyrido[1,2-a][1,4]diazonine]-10′-carboxamide], the pEC50 in the data set with HIV-1 (IIIB) (setting [1]) is 8.08; in the data set on pLAI reporter virus (read-out: RLUC 50% HS EC50), 8.85; in the data set on pLAI reporter virus (read-out: RLUC CCM EC50), 8.68. Further, the half-maximal cytotoxic concentration (CC50) at 5 days in the data set “in vitro” is at least 50000 nM.
The matching figures for `[2H]C([2H])([2H])OC1=NO[C@@]2(CC[C@H](C)N3C[C@H]2n2cc(C(=O)NCc4c(F)cc(F)cc4F)c(=O)c(O)c2C3=O)C1([2H])[2H]` [Example 39, (3′S,5S,7′R)-12′-hydroxy-3-(methoxy-d3)-3′-methyl-1′,11′-dioxo-N-(2,4,6-trifluorobenzyl)-1′,4′,5′,11′-tetrahydro-3′H,4H,7′H-spiro[isoxazole-5,6′-[2,7]methanopyrido[1,2-a][1,4]diazonine]-4,4-d2-10′-carboxamide]: 9.00, 7.45, 9.52 and 23500 nM.
The matching figures for `CC1=NO[C@@]2(CC[C@H](C)N3C[C@H]2n2cc(C(=O)NCc4c(F)cc(F)cc4F)c(=O)c(O)c2C3=O)C1` [Example 3, (3′S,5S,7′R)-12′-hydroxy-3,3′-dimethyl-1′,11′-dioxo-N-(2,4,6-trifluorobenzyl)-1′,4′,5′,11′-tetrahydro-3′H,4H,7′H-spiro[isoxazole-5,6′-[2,7]methanopyrido[1,2-a][1,4]diazonine]-10′-carboxamide]: 9.05, 7.15, 9.70 and 20100 nM.
On the same counts, the results for `COc1ccc(CN2C(C)=NO[C@@]23CC[C@H](C)N2C[C@H]3n3cc(C(=O)NCc4ccc(F)cc4F)c(=O)c(O)c3C2=O)cc1` [Example 147, (3′S,5R,7′R)—N-(2,4-difluorobenzyl)-12′-hydroxy-4-(4-methoxybenzyl)-3,3′-dimethyl-1′,11′-dioxo-1′,4′,5′,11′-tetrahydro-3′H,4H,7′H-spiro[[1,2,4]oxadiazole-5,6′-[2,7]methanopyrido[1,2-a][1,4]diazonine]-10′-carboxamide] are 8.39, 7.91, 8.89 and 7530 nM.
As to `COC1=NO[C@@]2(CC[C@H](C)N3C[C@H]2n2cc(C(=O)NCc4c(F)cc(F)cc4F)c(=O)c(O)c2C3=O)[C@H]1O` [Example 84, (3′S,4R,5R,7′R)-4,12′-dihydroxy-3-methoxy-3′-methyl-1′,11′-dioxo-N-(2,4,6-trifluorobenzyl)-1′,4′,5′,11′-tetrahydro-3′H,4H,7′H-spiro[isoxazole-5,6′-[2,7]methanopyrido[1,2-a][1,4]diazonine]-10′-carboxamide], the pEC50 in the data set with HIV-1 (IIIB) (setting [1]) was 8.80; with pLAI reporter virus (read-out: RLUC 50% HS EC50), 7.65; with pLAI reporter virus (read-out: RLUC CCM EC50), 9.52. In the data set “in vitro”, this molecule gave a CC50 at 5 days of 25800 nM.
`C[C@H]1CCC2(OCCCO2)[C@H]2CN1C(=O)c1c(O)c(=O)c(C(=O)NCc3c(F)cc(F)cc3F)cn12` [Example 128, (3′S,7′R)-12′-hydroxy-3′-methyl-1′,11′-dioxo-N-(2,4,6-trifluorobenzyl)-1′,4′,5′,11′-tetrahydro-3′H,7′H-spiro[[1,3]dioxane-2,6′-[2,7]methanopyrido[1,2-a][1,4]diazonine]-10′-carboxamide]: the pEC50 was 8.96 in the data set with HIV-1 (IIIB) (setting [1]), 7.74 with pLAI reporter virus (read-out: RLUC 50% HS EC50) and 9.70 with pLAI reporter virus (read-out: RLUC CCM EC50). Besides, in “in vitro”, the midpoint of cytotoxicity, the CC50 at 5 days, lay at 20500 nM.
Turning to `C[C@H]1CC[C@]2(CC(=O)N(Cc3cccc4ccccc34)O2)[C@H]2CN1C(=O)c1c(O)c(=O)c(C(=O)NCc3c(F)cc(F)cc3F)cn12` [Example 106, (3′S,5S,7′R)-12′-hydroxy-3′-methyl-2-(naphthalen-1-ylmethyl)-1′,3,11′-trioxo-N-(2,4,6-trifluorobenzyl)-1′,4′,5′,11′-tetrahydro-3′H,7′H-spiro[isoxazolidine-5,6′-[2,7]methanopyrido[1,2-a][1,4]diazonine]-10′-carboxamide], the negative-log EC50 (pEC50) in the data set on HIV-1 (IIIB) (setting [1]) is 9.05; in the data set with pLAI reporter virus (read-out: RLUC 50% HS EC50) it was 7.19; in the data set on pLAI reporter virus (read-out: RLUC CCM EC50), 9.70. In addition, the CC50 at 5 days in the data set “in vitro” was at least 50000 nM.
On the same counts, the results for `C[C@H]1CC[C@]2(CC(CC(F)(F)F)=NO2)[C@H]2CN1C(=O)c1c(O)c(=O)c(C(=O)NCc3c(F)cc(F)cc3F)cn12` [Example 9] are 9.10, 6.84, 9.30 and 10200 nM.
